This is an account of results in patent publication US20120328735A1, “PROCESS FOR PREPARING CASEIN-DERIVED PEPTIDES BY FERMENTATION OF LACTIC ACID BACTERIA” (priority 2011, published 2012).

Experiment [1] has as its system scopolamine-induced amnesia. As to the kind of experiment: Y-shaped maze test, spontaneous alternation behavior, scopolamine-induced amnesia. The format is in vivo. To be noted: male ddY mice, scopolamine 1 mg/kg s.c. The procedure: Male ddY mice (about 7 weeks old) were used (n=15 to 75), and provided with food and water ad libitum. Asn-Ile-Pro-Pro-Leu-Thr-Gln-Thr-Pro-Val-Val-Val-Pro-Pro-Phe-Leu-Gln-Pro-Glu (SEQ ID NO: 1) was used as a test substance in amounts of 0.05 nmol/kg body weight (0.1 μg/kg body weight), 0.5 nmol/kg body weight (1 μg/kg body weight), 1.5 nmol/kg body weight (3 μg/kg body weight), 5 nmol/kg body weight (10 μg/kg body weight), 50 nmol/kg body weight (100 μg/kg body weight), and 500 nmol/kg body weight (1,000 μg/kg body weight). The test substance was administered as a single dose orally to mice 60 minutes before performing a Y-shaped maze test for evaluating spontaneous alternation behavior. Thirty minutes before performing the Y-shaped maze test, scopolamine was subcutaneously administered in an amount of 1 mg/kg body weight into the back to induce brain dysfunction (memory disorder and/or cognition disorder) in mice. In the Y-shaped maze test, as an experiment device, a Y-shaped maze was used in which the length for each arm was 40 cm; the wall height was 12 cm; the floor width was 3 cm; the upper part width was 10 cm; and three arms were connected to each other at an angle of 120°. Each mouse was placed in the end of any of the arms of the Y-shaped maze and allowed to explore freely in the maze over 8 minutes, and the sequence of the arms to which the mouse moved was recorded. The number of movements of the mouse to the arms within the measurement time was counted and used as the total number of entries; in the sequence, the combination in which three different arms were selected in succession (for example, with the three arms respectively called A, B, and C, if the sequence of the aims entered is ABCBACACB, the count is 4 inclusive of overlapping) was investigated, and the count number was used as the number of spontaneous alternation behaviors. The change in spontaneous alternation behavior (%) was calculated by dividing the number of spontaneous alternation behaviors by a number obtained by subtracting 2 from the total number of entries, and multiplying the resultant number by 100, and the percentage was used as an indicator of the spontaneous alternation behavior. […] The measured values were expressed as mean±standard error for each group. The significance of difference between the control group and the scopolamine control group was tested by Student's t-test. The significance of difference between the scopolamine control group and the peptide-administered group was tested by Dunnett's multiple comparison test after one-way analysis of variance.
Male ddY mice (about 7 weeks old) were used (n=15 to 45), and provided with food and water ad libitum. As test substances, Asn-Ile-Pro-Pro-Leu-Thr-Gln-Thr-Pro-Val-Val-Val-Pro-Pro-Phe-Leu-Gln-Pro-Glu (SEQ ID NO: 1) at 50 nmol/kg body weight (100 μg/kg body weight), or […]([…]; SEQ ID NO: 2) at 50 nmol/kg body weight (120 μg/kg body weight), or Ile-Pro-Pro-Leu-Thr-Gln-Thr-Pro-Val-Val-Val-Pro-Pro-Phe-Leu-Gln-Pro-Glu (IPPLTQTPVVVPPFLQPE; SEQ ID NO: 7) at 50 nmol/kg body weight (100 μg/kg body weight), or Asn-Ile-Pro-Pro-Leu-Thr-Gln-Thr-Pro-Val-Val-Val-Pro-Pro-Phe-Leu-Gln-Pro (NIPPLTQTPVVVPPFLQP; SEQ ID NO: 8) at 50 nmol/kg body weight (100 μg/kg body weight), or Thr-Gln-Thr-Pro-Val-Val-Val-Pro-Pro-Phe (TQTPVVVPPF; SEQ ID NO: 9) at 50 nmol/kg body weight (50 μg/kg body weight) were used. The percentage of change in the spontaneous alternation behavior was determined as described in Example 4, and used as an indicator of the spontaneous alternation behavior. The measured values were expressed as mean±standard error for each group. The significance of difference between the control group and the scopolamine control group was tested by Student's t-test. The significance of difference between the scopolamine control group and each peptide-administered group was tested by Dunnett's multiple comparison test after one-way analysis of variance. […]

The next experiment concerns memory retention. The experiment in a line: novel object recognition test for evaluating memory retention. The format is in vivo. To be noted: male ddY mice; single oral dose 500 nmol/kg body weight (1,000 μg/kg) 60 min before training trial; retention trial 48 hours later; FIG. 5. The procedure: Male ddY mice (about 7 weeks old) were used (n=14 to 15), and provided with food and water ad libitum. As a test substance, 500 nmol/kg body weight (1,000 μg/kg body weight) of Asn-Ile-Pro-Pro-Leu-Thr-Gln-Thr-Pro-Val-Val-Val-Pro-Pro-Phe-Leu-Gln-Pro-Glu (SEQ ID NO: 1) was used. The test substance was administered as a single dose orally to mice 60 minutes before performing a novel object recognition test for evaluating memory retention. In the novel object recognition test, a 30×30×30 cm box was used as an experiment device. As a conditioning operation, a mouse was placed in an experiment device in which a floorcloth was laid for 5 minutes, and allowed to explore freely in the device. A training trial was performed the day following the conditioning operation. […] Sixty minutes after orally administering the test substance or water, a mouse was placed in the experiment device for 5 minutes, and the time (second) was measured during which the mouse explored by approaching each object to be within 1 cm therefrom. […] (However, the state in which a mouse rides on an object is excluded.) The percentages of the times were determined during which two objects were explored in each of the training trial and the retention trial. The percentage (%) of the exploration time for each object was expressed as mean±standard error for each of the groups. […]

Setting [2] is: single oral dose 500 nmol/kg body weight, vs scopolamine control group, FIG. 4, FIG. 7, FIG. 9.
The mark [3] stands for this setting: single oral dose 50 nmol/kg body weight, vs scopolamine control group, FIG. 3, FIG. 6.

Ends that are not written are not given here.

SWMHQPHQPLPPTVMFPPQSVL [SEQ ID NO: 3]: the “amnesia-preventing action (change in spontaneous alternation behavior)” value in experiment [1] (single oral dose 150 nmol/kg body weight to 500 nmol/kg body weight (380 to 1,280 μg/kg), FIG. 8) is on record as “shown to have an amnesia-preventing action”; in experiment [1] (setting [2]), “shown to have amnesia-preventing actions”.
Regarding PPLTQTPVVVPPFLQPE [SEQ ID NO: 10], the “amnesia-preventing action (change in spontaneous alternation behavior)” value in experiment [1] (setting [2]) was “shown to have amnesia-preventing actions”.
Consider NIPPLTQTPVVVPPFLQP [SEQ ID NO: 8], for which the “amnesia-preventing action (change in spontaneous alternation behavior)” value in experiment [1] (setting [3]) is “significant difference compared to the scopolamine control group could not be confirmed”.
IPPLTQTPVVVPPFLQPE [SEQ ID NO: 7]: the “amnesia-preventing action (change in spontaneous alternation behavior)” value in experiment [1] (setting [3]) is reported as “shown to have amnesia-preventing actions”.
For PLTQTPVVVPPFLQPE [SEQ ID NO: 12], the “amnesia-preventing action (change in spontaneous alternation behavior)” value in experiment [1] (setting [2]) was “shown to have amnesia-preventing actions”.
VVVPPFLQPE [SEQ ID NO: 15]: in experiment [1] (setting [2]), the “amnesia-preventing action (change in spontaneous alternation behavior)” value was “shown to have amnesia-preventing actions”.
Regarding PVVVPPFLQPE [SEQ ID NO: 14], the “amnesia-preventing action (change in spontaneous alternation behavior)” value in experiment [1] (setting [2]) was “shown to have amnesia-preventing actions”.
As to TQTPVVVPPFLQPE [SEQ ID NO: 11], the “amnesia-preventing action (change in spontaneous alternation behavior)” value in experiment [1] (setting [3]) is “shown to have an amnesia-preventing action”.
Consider NIPPLTQTPVVVPPFLQPE [SEQ ID NO: 1], for which the “amnesia-preventing action (change in spontaneous alternation behavior)” value in experiment [1] (setting [3]) is “shown to have amnesia-preventing actions”; in experiment [1] (setting [2]) it was “shown to have amnesia-preventing actions”; in experiment [1] (single oral dose 60 min before test, 0.05 nmol/kg body weight to 500 nmol/kg body weight (0.1 to 1,000 μg/kg), FIG. 2) it was “shown to have an amnesia-preventing action”. Further, the “memory-enhancing action (percentage of exploration time for novel object)” value in the experiment on memory retention was “shown to have a memory-enhancing action”.
On to TQTPVVVPPF [SEQ ID NO: 9], for which the “amnesia-preventing action (change in spontaneous alternation behavior)” value in experiment [1] (setting [3]) was “significant difference compared to the scopolamine control group could not be confirmed”.
LQSWMHQPHQPLPPTVMFPPQSVL [SEQ ID NO: 4]: in experiment [1] (setting [2]), the “amnesia-preventing action (change in spontaneous alternation behavior)” value is “shown to have amnesia-preventing actions”.
The same measure, in the same setting: to MHQPHQPLPPTVMFPPQSVL [SEQ ID NO: 16] belongs “shown to have amnesia-preventing actions”; to LTQTPVVVPPFLQPE [SEQ ID NO: 13], “shown to have amnesia-preventing actions”.
NIPPLTQTPVVVPPFLQPEVM [SEQ ID NO: 2]: in experiment [1] (setting [3]), the “amnesia-preventing action (change in spontaneous alternation behavior)” value is given as “shown to have amnesia-preventing actions”.
SWMHQPHQPLPPTVMFPPQ [SEQ ID NO: 17]: the “amnesia-preventing action (change in spontaneous alternation behavior)” value in experiment [1] (setting [2]) was “significant difference could not be confirmed”.
